Values after ≈ are worked out from the molar mass of the structure shown.

Some test systems named below: Micrococcus luteus A270; Candida albicans MDM8; Escherichia coli SBS 363; Escherichia coli MG1655; Candida albicans.
Assay in all cases: ≥ marks a high value that may be exact or a test limit, other limits are often not marked, values filed in µg/mL are converted to µM
Test [1] deals with Pseudomonas aeruginosa ATCC 27853.
Test [2] relates to Escherichia coli NCTC 10418.
For test [3], the system named is Enterococcus faecalis NCTC 12697.
In test [4] the test system is Candida albicans NCYC 1467.
Test [5] relates to Staphylococcus aureus NCTC 12493.
In test [6] the test system is Staphylococcus aureus NCTC 10788.
The test system of test [7] is Staphylococcus aureus ATCC 29213.
Test [8] deals with Serratia marcescens ATCC 4112.
For test [9], the system named is Candida tropicalis IOC 4560.
Test [10] relates to Bacillus megaterium ATCC 10778.
Test [11] concerns Enterobacter cloacae beta-12.
Test [12] deals with Bacillus subtilis ATCC 6633.
In test [13] the test system is Staphylococcus epidermidis ATCC 12228.
For test [14], the system named is Pseudomonas aeruginosa PAO1.
Test [15] relates to Staphylococcus aureus ATCC 25923.
Test [16] deals with Pseudomonas aeruginosa H1001.

Broadly, the MIC is the least concentration at which growth counts as inhibited. Low readings indicate inhibition by little substance, high ones a need for much substance. For the molecule `CSCC[C@H](NC(=O)[C@H](CC(=O)O)NC(=O)[C@@H](NC(=O)[C@@H](NC(=O)[C@H](C)NC(=O)[C@H](CC(N)=O)NC(=O)[C@H](CC(C)C)NC(=O)[C@H](C)NC(=O)[C@H](C)NC(=O)[C@H](CCCCN)NC(=O)CNC(=O)[C@H](C)NC(=O)[C@H](C)NC(=O)[C@H](CCCCN)NC(=O)CNC(=O)[C@@H](NC(=O)[C@H](CC(N)=O)NC(=O)[C@H](CCCCN)NC(=O)[C@H](CC(C)C)NC(=O)[C@H](CC(C)C)NC(=O)[C@H](CO)NC(=O)[C@H](CCCCN)NC(=O)[C@H](Cc1c[nH]c2ccccc12)NC(=O)[C@H](CC(C)C)NC(=O)[C@H](C)N)C(C)C)C(C)C)[C@@H](C)O)C(=O)N[C@H](C(=O)N[C@@H](CC(N)=O)C(=O)N[C@@H](CCC(N)=O)C(N)=O)C(C)C` [ALWKSLLKNVGKAAGKAALNAVTDMVNQ], the MIC in test [1] is 4 µM (≈ 11.6 µg/mL); in test [2] it was 4 µM (≈ 11.6 µg/mL); in [3], ≥ 64 µM; in [4], 4 µM (≈ 11.6 µg/mL); in test [5], 4 µM (≈ 11.6 µg/mL); in [6], 4 µM (≈ 11.6 µg/mL).

Consider `CC(C)C[C@H](NC(=O)[C@H](C)NC(=O)CNC(=O)[C@H](CC(C)C)NC(=O)[C@@H](N)Cc1ccccc1)C(=O)N[C@@H](Cc1c[nH]c2ccccc12)C(=O)N[C@@H](CC(N)=O)C(=O)N1CCC[C@H]1C(=O)N[C@@H](C)C(=O)N[C@@H](CCCCN)C(=O)N[C@@H](CO)C(=O)N[C@H](C(=O)N[C@@H](Cc1ccccc1)C(N)=O)C(C)C` [FLGALWNPAKSVF], for which the minimal inhibitory concentration (MIC) was > 50 µM in test [7]; 12.5 µM (≈ 18.1 µg/mL) in test [8]; ≥ 50 µM in [9]; > 50 µM in test [1]; 25 µM (≈ 36.2 µg/mL) in the test on Micrococcus luteus A270; ≥ 50 µM with Candida albicans MDM8. The MIC (in [10]; in the test on Escherichia coli SBS 363; in test [11]; in test [12]) was ≥ 50 µM throughout.

`CC(C)C[C@H](NC(=O)[C@H](C)NC(=O)[C@H](CCCCN)NC(=O)[C@H](CC(C)C)NC(=O)[C@@H](N)Cc1ccccc1)C(=O)N[C@@H](Cc1c[nH]c2ccccc12)C(=O)N[C@@H](CCCCN)C(=O)N[C@H](C(=O)N[C@@H](C)C(=O)N[C@@H](CCCCN)C(=O)N[C@@H](CO)C(=O)N[C@H](C(=O)N[C@@H](Cc1ccccc1)C(N)=O)C(C)C)C(C)C` [FLKALWKVAKSVF]: the MIC worked out at 0.8 µM (≈ 1.23 µg/mL) in test [7]; 0.1 µM (≈ 0.154 µg/mL) in [8]; 0.8 µM (≈ 1.23 µg/mL) in test [9]; 0.4 µM (≈ 0.614 µg/mL) with Micrococcus luteus A270; 1.6 µM (≈ 2.46 µg/mL) with Candida albicans MDM8; 0.4 µM (≈ 0.614 µg/mL) in test [10]. The MIC was 1.6 µM (≈ 2.46 µg/mL) with Escherichia coli SBS 363, 3.1 µM (≈ 4.76 µg/mL) in [11] and 3.1 µM (≈ 4.76 µg/mL) in test [13].

In the case of `CC[C@H](C)[C@H](NC(=O)CNC(=O)CNC(=O)[C@H](C)NC(=O)[C@@H](NC(=O)[C@H](CCCCN)NC(=O)[C@@H]1CCCN1C(=O)[C@@H](NC(=O)[C@H](CC(C)C)NC(=O)[C@H](CO)NC(=O)[C@H](CC(C)C)NC(=O)[C@@H](N)Cc1ccccc1)[C@@H](C)CC)[C@@H](C)CC)C(=O)N[C@@H](C)C(=O)N[C@@H](C)C(=O)N[C@@H](CC(C)C)C(=O)N[C@@H](C)C(=O)N[C@@H](CCCCN)C(=O)N[C@@H](Cc1cnc[nH]1)C(=O)N[C@@H](CC(C)C)C(N)=O` [FLSLIPKIAGGIAALAKHL], the MIC in test [2] is 16.6 µM (≈ 32 µg/mL); in [3] it was 16.6 µM (≈ 32 µg/mL); in [4], 2.07 µM (≈ 4 µg/mL); in [5] it was 4.14 µM (≈ 8 µg/mL); in test [6] it was 4.14 µM (≈ 8 µg/mL).

As to `CSCC[C@H](NC(=O)[C@@H](NC(=O)[C@H](CCCCN)NC(=O)[C@H](Cc1cnc[nH]1)NC(=O)[C@H](CC(C)C)NC(=O)CN)C(C)C)C(=O)N[C@@H](CCCN=C(N)N)C(=O)N[C@@H](CCC(=O)O)C(=O)N[C@H](C(=O)N[C@@H](CC(C)C)C(=O)NCC(=O)N[C@@H](Cc1ccc(O)cc1)C(N)=O)C(C)C` [GLHKVMREVLGY], the minimum inhibitory concentration (MIC) in the test with Escherichia coli MG1655 is ≥ 128 µM; in the test on Candida albicans, > 128 µM; in test [14], > 128 µM; in test [15], > 128 µM.

For `CSCC[C@H](NC(=O)[C@@H](NC(=O)[C@H](CCCCN)NC(=O)[C@H](Cc1cnc[nH]1)NC(=O)[C@H](CC(C)C)NC(=O)CN)C(C)C)C(=O)N[C@@H](CCCN=C(N)N)C(=O)N[C@@H](CCCCN)C(=O)N[C@H](C(=O)N[C@@H](CC(C)C)C(=O)NCC(=O)N[C@@H](Cc1ccc(O)cc1)C(=O)N[C@@H](CC(C)C)C(=O)N[C@@H](CCCN=C(N)N)C(=O)N[C@@H](CC(N)=O)C(=O)N[C@H](C(=O)N[C@@H](Cc1ccc(O)cc1)C(=O)N[C@@H](CCCCN)C(N)=O)C(C)C)C(C)C` [GLHKVMRKVLGYLRNVYK], the MIC against Escherichia coli MG1655 came to 1 µM (≈ 2.17 µg/mL); with Candida albicans, 8 µM (≈ 17.4 µg/mL); in test [14] it was 8 µM (≈ 17.4 µg/mL); in [15], 8 µM (≈ 17.4 µg/mL).

As for `CC[C@H](C)[C@H](NC(=O)[C@H](CCCCN)NC(=O)[C@H](CCCCN)NC(=O)[C@H](Cc1cnc[nH]1)NC(=O)[C@@H](NC(=O)[C@H](CCCN=C(N)N)NC(=O)[C@H](CS)NC(=O)[C@H](CC(C)C)NC(=O)[C@H](CC(C)C)NC(=O)[C@@H](N)CCCCN)C(C)C)C(=O)O` [KLLCRVHKKI], the minimum inhibitory concentration (MIC) in [16] is ≥ 40.4 µM.

As for `CSCC[C@H](NC(=O)[C@@H](NC(=O)[C@@H](N)CCCCN)C(C)C)C(=O)N[C@@H](CCCN=C(N)N)C(=O)N[C@@H](CCC(=O)O)C(=O)N[C@H](C(=O)N[C@@H](CC(C)C)C(=O)NCC(=O)N[C@@H](Cc1ccc(O)cc1)C(=O)N[C@@H](CCC(=O)O)C(=O)N[C@@H](CCCN=C(N)N)C(=O)N[C@@H](CC(N)=O)C(=O)N[C@@H](CO)C(=O)N[C@@H](Cc1ccc(O)cc1)C(=O)N[C@@H](CCCCN)C(N)=O)C(C)C` [KVMREVLGYERNSYK], the minimal inhibitory concentration (MIC) was ≥ 128 µM with Escherichia coli MG1655, > 128 µM against Candida albicans, > 128 µM in test [14] and > 128 µM in test [15].

Turning to `NCCCC[C@H](NC(=O)[C@H](CCCCN)NC(=O)[C@H](Cc1c[nH]c2ccccc12)NC(=O)[C@H](CCCCN)NC(=O)[C@H](Cc1c[nH]c2ccccc12)NC(=O)[C@H](Cc1c[nH]c2ccccc12)NC(=O)[C@H](CCCCN)NC(=O)[C@H](Cc1c[nH]c2ccccc12)NC(=O)[C@@H](N)CCCCN)C(N)=O` [KWKWWKWKK], the MIC in test [16] was ≥ 89 µM.

In [16], `CC[C@H](C)[C@H](NC(=O)[C@H](CCCN=C(N)N)NC(=O)[C@H](CCCN=C(N)N)NC(=O)[C@@H]1CCCN1C(=O)[C@H](CCSC)NC(=O)[C@H](CCCN=C(N)N)NC(=O)[C@@H]1CCCN1C(=O)[C@H](CCCN=C(N)N)NC(=O)[C@@H]1CCCN1C(=O)[C@H](CC(C)C)NC(=O)[C@H](Cc1ccc(O)cc1)NC(=O)[C@@H]1CCCN1C(=O)[C@@H]1CCCN1C(=O)[C@H](CCCCN)NC(=O)[C@H](CC(=O)O)NC(=O)[C@@H](N)C(C)C)C(=O)N[C@@H](Cc1ccc(O)cc1)C(=O)N[C@@H](CC(N)=O)C(=O)N[C@@H](CCCN=C(N)N)C(=O)NCC(=O)O` [VDKPPYLPRPRMPRRIYNRG] yielded an MIC of 0.0886 µM (≈ 0.22 µg/mL).

Take `CC[C@H](C)[C@H](NC(=O)[C@H](CCCN=C(N)N)NC(=O)[C@H](CCCN=C(N)N)NC(=O)[C@@H]1CCCN1C(=O)[C@H](Cc1ccc(O)cc1)NC(=O)[C@H](CCCN=C(N)N)NC(=O)[C@@H]1CCCN1C(=O)[C@H](CCCN=C(N)N)NC(=O)[C@@H]1CCCN1C(=O)[C@H](CC(C)C)NC(=O)[C@H](Cc1ccc(O)cc1)NC(=O)[C@@H]1CCCN1C(=O)[C@@H]1CCCN1C(=O)[C@H](CCCCN)NC(=O)[C@H](CC(=O)O)NC(=O)[C@@H](N)C(C)C)C(=O)N[C@@H](Cc1ccc(O)cc1)C(=O)N[C@@H](CC(N)=O)C(=O)N[C@@H](CCCN=C(N)N)C(=O)NCC(=O)O` [VDKPPYLPRPRYPRRIYNRG]: in [16], the MIC is 0.0597 µM (≈ 0.15 µg/mL). The MIC values of the last two molecules are within 1.5-fold of each other.

These data come from DBAASP.
